The compounds below were run against human Gal-3 (hGal-3) (Homo sapiens (Human), UniProt P17931) (assay: competitive binding assay: binding of biotinylated hGal-3 to microplate-adsorbed asialofetuin (ASF), spectrophotometric). Details: Activity on hGal-3; mean values of several measurements.
Method in brief: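 Spectrophotometric readout (streptavidin-peroxidase, ABTS) of biotinylated galectin retained on ASF-coated wells. Biotinylated hGal-1 or hGal-3, 300-1000 ng/mL, co-incubated with test compound 3 h at 4° C, then washed. Mean IC50 from repeat runs.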

Sequence of human Gal-3 (hGal-3) (P17931 whole entry): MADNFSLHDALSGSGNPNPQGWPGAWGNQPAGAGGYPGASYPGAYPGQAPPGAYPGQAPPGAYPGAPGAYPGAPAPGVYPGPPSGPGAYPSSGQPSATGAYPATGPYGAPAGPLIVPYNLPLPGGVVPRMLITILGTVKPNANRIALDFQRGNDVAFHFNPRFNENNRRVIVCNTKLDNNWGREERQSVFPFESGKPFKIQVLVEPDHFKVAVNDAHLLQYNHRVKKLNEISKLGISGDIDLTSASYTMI

IC50 [nM] | Structure (SMILES)
71.4 | CO[C@@H]1[C@@H](n2cc(-c3cc(F)c(Cl)c(F)c3)nn2)[C@@H](O)[C@@H](CO)O[C@H]1C(=O)N(c1cc(Cl)cc(C#N)c1)[C@H]1CC[C@@H]1O [Example 2.5.4, (2R,3R,4S,5R,6R)-4-(4-(4-chloro-3,5-difluorophenyl)-1H-1,2,3-triazol-1-yl)-N-(3-chloro-5-cyanophenyl)-5-hydroxy-N-((1S,2S)-2-hydroxycyclobutyl)-6-(hydroxymethyl)-3-methoxytetrahydro-2H-pyran-2-carboxamide]
193 | CO[C@@H]1[C@@H](n2cc(-c3cc(F)c(Cl)c(F)c3)nn2)[C@@H](O)[C@@H](CO)O[C@H]1C(=O)N(c1cc(Cl)cc(C#N)c1)[C@@H]1CC[C@H]1O [Example 2.5.4R, (2R,3R,4S,5R,6R)-4-(4-(4-chloro-3,5-difluorophenyl)-1H-1,2,3-triazol-1-yl)-N-(3-chloro-5-cyanophenyl)-5-hydroxy-N-((1R,2R)-2-hydroxycyclobutyl)-6-(hydroxymethyl)-3-methoxytetrahydro-2H-pyran-2-carboxamide]
47 | CO[C@@H]1[C@@H](n2cc(-c3cc(F)c(Cl)c(F)c3)nn2)[C@@H](O)[C@@H](CO)O[C@H]1C(=O)N(c1cc(Br)cc(C#N)c1)[C@H]1CC[C@@H]1O [Example 2.5.5, (2R,3R,4S,5R,6R)-N-(3-bromo-5-cyanophenyl)-4-(4-(4-chloro-3,5-difluorophenyl)-1H-1,2,3-triazol-1-yl)-5-hydroxy-N-((1S,2S)-2-hydroxycyclobutyl)-6-(hydroxymethyl)-3-methoxytetrahydro-2H-pyran-2-carboxamide]
184 | CO[C@@H]1[C@@H](n2cc(-c3cc(F)c(Cl)c(F)c3)nn2)[C@@H](O)[C@@H](CO)O[C@H]1C(=O)N(c1cc(Br)cc(C#N)c1)[C@@H]1CC[C@H]1O [Example 2.5.5R, (2R,3R,4S,5R,6R)-N-(3-bromo-5-cyanophenyl)-4-(4-(4-chloro-3,5-difluorophenyl)-1H-1,2,3-triazol-1-yl)-5-hydroxy-N-((1R,2R)-2-hydroxycyclobutyl)-6-(hydroxymethyl)-3-methoxytetrahydro-2H-pyran-2-carboxamide]
80 | CO[C@@H]1[C@@H](n2cc(-c3cc(F)c(Br)c(F)c3)nn2)[C@@H](O)[C@@H](CO)O[C@H]1C(=O)N(c1cc(Cl)cc(C#N)c1)[C@H]1CC[C@@H]1O [Example 2.6.4, (2R,3R,4S,5R,6R)-4-(4-(4-bromo-3,5-difluorophenyl)-1H-1,2,3-triazol-1-yl)-N-(3-chloro-5-cyanophenyl)-5-hydroxy-N-((1S,2S)-2-hydroxycyclobutyl)-6-(hydroxymethyl)-3-methoxytetrahydro-2H-pyran-2-carboxamide]
174 | CO[C@@H]1[C@@H](n2cc(-c3cc(F)c(Br)c(F)c3)nn2)[C@@H](O)[C@@H](CO)O[C@H]1C(=O)N(c1cc(Cl)cc(C#N)c1)[C@@H]1CC[C@H]1O [Example 2.6.4R, (2R,3R,4S,5R,6R)-4-(4-(4-bromo-3,5-difluorophenyl)-1H-1,2,3-triazol-1-yl)-N-(3-chloro-5-cyanophenyl)-5-hydroxy-N-((1R,2R)-2-hydroxycyclobutyl)-6-(hydroxymethyl)-3-methoxytetrahydro-2H-pyran-2-carboxamide]
70.9 | CO[C@@H]1[C@@H](n2cc(-c3cc(F)c(Br)c(F)c3)nn2)[C@@H](O)[C@@H](CO)O[C@H]1C(=O)N(c1cc(Br)cc(C#N)c1)[C@H]1CC[C@@H]1O [Example 2.6.5, (2R,3R,4S,5R,6R)-4-(4-(4-bromo-3,5-difluorophenyl)-1H-1,2,3-triazol-1-yl)-N-(3-bromo-5-cyanophenyl)-5-hydroxy-N-((1S,2S)-2-hydroxycyclobutyl)-6-(hydroxymethyl)-3-methoxytetrahydro-2H-pyran-2-carboxamide]
303 | CO[C@@H]1[C@@H](n2cc(-c3cc(F)c(Br)c(F)c3)nn2)[C@@H](O)[C@@H](CO)O[C@H]1C(=O)N(c1cc(Br)cc(C#N)c1)[C@@H]1CC[C@H]1O [Example 2.6.5R, (2R,3R,4S,5R,6R)-4-(4-(4-bromo-3,5-difluorophenyl)-1H-1,2,3-triazol-1-yl)-N-(3-bromo-5-cyanophenyl)-5-hydroxy-N-((1R,2R)-2-hydroxycyclobutyl)-6-(hydroxymethyl)-3-methoxytetrahydro-2H-pyran-2-carboxamide]
183 | CO[C@@H]1[C@@H](n2cc(-c3cc(F)c(Br)c(F)c3)nn2)[C@@H](O)[C@@H](CO)O[C@H]1C(=O)N(c1cc(F)cc(C#N)c1)[C@H]1CC[C@@H]1O [Example 2.6.7, (2R,3R,4S,5R,6R)-4-(4-(4-bromo-3,5-difluorophenyl)-1H-1,2,3-triazol-1-yl)-N-(3-cyano-5-fluorophenyl)-5-hydroxy-N-((1S,2S)-2-hydroxycyclobutyl)-6-(hydroxymethyl)-3-methoxytetrahydro-2H-pyran-2-carboxamide]
359 | CO[C@@H]1[C@@H](n2cc(-c3cc(F)c(Br)c(F)c3)nn2)[C@@H](O)[C@@H](CO)O[C@H]1C(=O)N(c1cc(F)cc(C#N)c1)[C@@H]1CC[C@H]1O [Example 2.6.7R, (2R,3R,4S,5R,6R)-4-(4-(4-bromo-3,5-difluorophenyl)-1H-1,2,3-triazol-1-yl)-N-(3-cyano-5-fluorophenyl)-5-hydroxy-N-((1R,2R)-2-hydroxycyclobutyl)-6-(hydroxymethyl)-3-methoxytetrahydro-2H-pyran-2-carboxamide]
78.6 | CO[C@@H]1[C@@H](n2cc(-c3cc(F)c(F)c(Cl)c3)nn2)[C@@H](O)[C@@H](CO)O[C@H]1C(=O)N(c1cc(Cl)cc(C#N)c1)[C@H]1CC[C@@H]1O [Example 2.7.4, (2R,3R,4S,5R,6R)-4-(4-(3-chloro-4,5-difluorophenyl)-1H-1,2,3-triazol-1-yl)-N-(3-chloro-5-cyanophenyl)-5-hydroxy-N-((1S,2S)-2-hydroxycyclobutyl)-6-(hydroxymethyl)-3-methoxytetrahydro-2H-pyran-2-carboxamide]
253 | CO[C@@H]1[C@@H](n2cc(-c3cc(F)c(F)c(Cl)c3)nn2)[C@@H](O)[C@@H](CO)O[C@H]1C(=O)N(c1cc(Cl)cc(C#N)c1)[C@@H]1CC[C@H]1O [Example 2.7.4R, (2R,3R,4S,5R,6R)-4-(4-(3-chloro-4,5-difluorophenyl)-1H-1,2,3-triazol-1-yl)-N-(3-chloro-5-cyanophenyl)-5-hydroxy-N-((1R,2R)-2-hydroxycyclobutyl)-6-(hydroxymethyl)-3-methoxytetrahydro-2H-pyran-2-carboxamide]
80.3 | CO[C@@H]1[C@@H](n2cc(-c3cc(F)c(F)c(Cl)c3)nn2)[C@@H](O)[C@@H](CO)O[C@H]1C(=O)N(c1cc(Br)cc(C#N)c1)[C@H]1CC[C@@H]1O [Example 2.7.5, (2R,3R,4S,5R,6R)-N-(3-bromo-5-cyanophenyl)-4-(4-(3-chloro-4,5-difluorophenyl)-1H-1,2,3-triazol-1-yl)-5-hydroxy-N-((1S,2S)-2-hydroxycyclobutyl)-6-(hydroxymethyl)-3-methoxytetrahydro-2H-pyran-2-carboxamide]
232 | CO[C@@H]1[C@@H](n2cc(-c3cc(F)c(F)c(Cl)c3)nn2)[C@@H](O)[C@@H](CO)O[C@H]1C(=O)N(c1cc(Br)cc(C#N)c1)[C@@H]1CC[C@H]1O [Example 2.7.5R, (2R,3R,4S,5R,6R)-N-(3-bromo-5-cyanophenyl)-4-(4-(3-chloro-4,5-difluorophenyl)-1H-1,2,3-triazol-1-yl)-5-hydroxy-N-((1R,2R)-2-hydroxycyclobutyl)-6-(hydroxymethyl)-3-methoxytetrahydro-2H-pyran-2-carboxamide]
131 | CO[C@@H]1[C@@H](n2cc(-c3ccc(Cl)c(Cl)c3)nn2)[C@@H](O)[C@@H](CO)O[C@H]1C(=O)N(c1cc(Cl)cc(C#N)c1)[C@H]1CC[C@@H]1O [Example 2.8.4, (2R,3R,4S,5R,6R)-N-(3-chloro-5-cyanophenyl)-4-(4-(3,4-dichlorophenyl)-1H-1,2,3-triazol-1-yl)-5-hydroxy-N-((1S,2S)-2-hydroxycyclobutyl)-6-(hydroxymethyl)-3-methoxytetrahydro-2H-pyran-2-carboxamide]
401 | CO[C@@H]1[C@@H](n2cc(-c3ccc(Cl)c(Cl)c3)nn2)[C@@H](O)[C@@H](CO)O[C@H]1C(=O)N(c1cc(Cl)cc(C#N)c1)[C@@H]1CC[C@H]1O [Example 2.8.4R, (2R,3R,4S,5R,6R)-N-(3-chloro-5-cyanophenyl)-4-(4-(3,4-dichlorophenyl)-1H-1,2,3-triazol-1-yl)-5-hydroxy-N-((1R,2R)-2-hydroxycyclobutyl)-6-(hydroxymethyl)-3-methoxytetrahydro-2H-pyran-2-carboxamide]
155 | CO[C@@H]1[C@@H](n2cc(-c3ccc(Cl)c(Cl)c3)nn2)[C@@H](O)[C@@H](CO)O[C@H]1C(=O)N(c1cc(Br)cc(C#N)c1)[C@H]1CC[C@@H]1O [Example 2.8.5, (2R,3R,4S,5R,6R)-N-(3-bromo-5-cyanophenyl)-4-(4-(3,4-dichlorophenyl)-1H-1,2,3-triazol-1-yl)-5-hydroxy-N-((1S,2S)-2-hydroxycyclobutyl)-6-(hydroxymethyl)-3-methoxytetrahydro-2H-pyran-2-carboxamide]
446 | CO[C@@H]1[C@@H](n2cc(-c3ccc(Cl)c(Cl)c3)nn2)[C@@H](O)[C@@H](CO)O[C@H]1C(=O)N(c1cc(Br)cc(C#N)c1)[C@@H]1CC[C@H]1O [Example 2.8.5R, (2R,3R,4S,5R,6R)-N-(3-bromo-5-cyanophenyl)-4-(4-(3,4-dichlorophenyl)-1H-1,2,3-triazol-1-yl)-5-hydroxy-N-((1R,2R)-2-hydroxycyclobutyl)-6-(hydroxymethyl)-3-methoxytetrahydro-2H-pyran-2-carboxamide]
123 | CO[C@@H]1[C@@H](n2cc(-c3cc(F)cc(Cl)c3)nn2)[C@@H](O)[C@@H](CO)O[C@H]1C(=O)N(c1cc(Br)cc(C#N)c1)[C@H]1CC[C@@H]1O [Example 2.9.5, (2R,3R,4S,5R,6R)-N-(3-bromo-5-cyanophenyl)-4-(4-(3-chloro-5-fluorophenyl)-1H-1,2,3-triazol-1-yl)-5-hydroxy-N-((1S,2S)-2-hydroxycyclobutyl)-6-(hydroxymethyl)-3-methoxytetrahydro-2H-pyran-2-carboxamide]
